Positions count from the first letter of the chain named.
Key:
Type in all cases: biochemical
[1] = biological target: T1, human serine dehydratase (hSDH, EC 4.3.1.17), wild type, SEQ ID NO: 1 (Homo sapiens, UniProt P20132); assay: MBTH assay, kcat/Km of purified wild-type hSDH; conditions: role: substrate
T1 construct: hexahistidine (N); made in house; host or cells: E. coli BL21 (DE3), pET28a
T1 sequence (P20132 1-328): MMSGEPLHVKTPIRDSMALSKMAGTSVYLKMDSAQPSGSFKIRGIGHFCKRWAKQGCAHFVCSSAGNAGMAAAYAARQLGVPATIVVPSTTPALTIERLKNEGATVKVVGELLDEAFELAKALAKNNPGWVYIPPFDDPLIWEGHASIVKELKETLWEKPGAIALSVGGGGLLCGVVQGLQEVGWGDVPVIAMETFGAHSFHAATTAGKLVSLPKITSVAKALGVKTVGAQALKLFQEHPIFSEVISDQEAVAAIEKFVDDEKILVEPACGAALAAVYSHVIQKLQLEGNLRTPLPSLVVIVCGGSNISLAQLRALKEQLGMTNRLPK
Procedure: (§1) Human SDH variants were expressed and purified for subsequent biophysical characterization. In brief, hSDH variants in the pET28a plasmid was transformed into BL21 (DE3) for expression. The cells were grown overnight at 37 °C in 5 mL of TB media with 50 μg/mL of kanamycin. The subsequent morning, cultures were inoculated, at a 1:1000 dilution, into 0.5 L of fresh TB media containing 50 μg/mL of kanamycin. Upon reaching an A600 of 0.6 to 0.8, the culture was moved to 25 °C and isopropyl β-D-1-thiogalactopyranoside (IPTG) was added to a final concentration of 1 mM to induce T7 RNA polymerase expression, and subsequently hSDH variant protein expression. After overnight incubation, cells were harvested via centrifugation at 5,500 rpm for 20 minutes. The cell pellet, after removing the supernatant, was resuspended using 25 mL of pET lysis buffer (10 mM NaH2PO4, 30 mM imidazole, 300 mM NaCl, pH 8.0). The cell suspension was then lysed by sonication and cleared by centrifugation at 14,000 rpm for 40 minutes. The supernatant from this centrifugation step was then filtered using a 0.22 μm membrane. The clarified supernatant was then applied to 1 mL of nickel-nitrotriacetic acid (Ni-NTA) resin that had been pre-equilibrated with 20 mL of pET lysis buffer. The resin was washed with 20 mL (20 column volumes) of pET lysis buffer. Afterward, the resin was incubated with 3 mL of pET elution buffer (10 mM NaH2POd4, 250 mM imidazole, 300 mM NaCl, pH 8.0), equilibrated for 5 minutes, and then eluted. The elution step was then repeated with 2 ml of extra elution buffer to increase recovery. […] Purity of the proteins were analyzed via sodium dodecyl sulfate-polyacrylamide gel electrophoresis (SDS-PAGE) on a 4% to 20% pre-cast Tris-Glycine gel run under reducing conditions (2.5% β-Mercaptoethanol (BME). Protein concentration was determined via A280 under denaturing conditions using a calculated extinction coefficient (8280=33960 M^−1 cm^−1) from Geneious software (v. 8.0.5). […]

[2] = biological target: T2, human serine dehydratase (hSDH) Variant 2 (S26N, R51H, S63P, M70I, L94P, G129D, A204S, K221R, A222S), SEQ ID NO: 3 (Homo sapiens, UniProt P20132, A204S/A222S/G129D/K221R/L94P/M70I/R51H/S26N/S63P); assay: MBTH assay, kcat/Km of purified hSDH Variant 2; conditions: role: substrate; threonine 1-100 mM, 1-2 μM enzyme, 37 °C, 20 seconds
T2 sequence (P20132 1-328 S26N/R51H/S63P/M70I/L94P/G129D/A204S/K221R/A222S): T1 sequence (P20132 1-328) with S26N, R51H, S63P, M70I, L94P, G129D, A204S, K221R, A222S
Procedure: as §1, with “minutes.” for “minutes. The supernatant from this centrifugation step was then filtered using a 0.22 μm membrane. The clarified supernatant was then applied to 1 mL of nickel-nitrotriacetic acid (Ni-NTA) resin that had been pre-equilibrated with 20 mL of pET lysis buffer. The resin was washed with 20 mL (20 column volumes) of pET lysis buffer. Afterward, the resin was incubated with 3 mL of pET elution buffer (10 mM NaH2POd4, 250 mM imidazole, 300 mM NaCl, pH 8.0), equilibrated for 5 minutes, and then eluted. The elution step was then repeated with 2 ml of extra elution buffer to increase recovery.”

[3] = biological target: T3, human serine dehydratase (hSDH) Variant 4 (I13T, S26N, R51H, I96T, D114E, G129D, K221R, A222S, W157R, D261L, L112S), SEQ ID NO: 5 (Homo sapiens, UniProt P20132, A222S/D114E/D261L/G129D/I13T/I96T/K221R/L112S/R51H/S26N/W157R); assay: MBTH assay, kcat/Km of purified hSDH Variant 4; conditions: role: substrate; threonine 1-100 mM, 1-2 μM enzyme, 37 °C, 20 seconds
T3 sequence (P20132 1-328 I13T/S26N/R51H/I96T/L112S/D114E/G129D/W157R/K221R/A222S/D261L): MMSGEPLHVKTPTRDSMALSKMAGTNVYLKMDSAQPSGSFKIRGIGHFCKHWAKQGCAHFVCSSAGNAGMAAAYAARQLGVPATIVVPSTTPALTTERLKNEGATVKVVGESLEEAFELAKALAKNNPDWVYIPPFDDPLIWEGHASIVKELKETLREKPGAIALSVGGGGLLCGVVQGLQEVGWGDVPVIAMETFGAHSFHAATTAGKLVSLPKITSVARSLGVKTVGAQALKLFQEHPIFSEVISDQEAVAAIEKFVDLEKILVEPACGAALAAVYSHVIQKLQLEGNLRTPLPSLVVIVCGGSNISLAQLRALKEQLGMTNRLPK
Procedure: as §1, with “minutes.” for “minutes. The supernatant from this centrifugation step was then filtered using a 0.22 μm membrane. The clarified supernatant was then applied to 1 mL of nickel-nitrotriacetic acid (Ni-NTA) resin that had been pre-equilibrated with 20 mL of pET lysis buffer. The resin was washed with 20 mL (20 column volumes) of pET lysis buffer. Afterward, the resin was incubated with 3 mL of pET elution buffer (10 mM NaH2POd4, 250 mM imidazole, 300 mM NaCl, pH 8.0), equilibrated for 5 minutes, and then eluted. The elution step was then repeated with 2 ml of extra elution buffer to increase recovery.”

[4] = biological target: T4, human serine dehydratase (hSDH) Variant 1 (K221F, A222S), SEQ ID NO: 2 (Homo sapiens, UniProt P20132, A222S/K221F); assay: MBTH assay, kcat/Km of purified hSDH Variant 1; conditions: role: substrate; threonine 1-100 mM, 1-2 μM enzyme, 37 °C, 20 seconds
T4 construct: hexahistidine (N); made in house; host or cells: E. coli BL21 (DE3), pET28a
T4 sequence (P20132 1-328 K221F/A222S): T1 sequence (P20132 1-328) with K221F, A222S
Procedure: as §1, with “minutes.” for “minutes. The supernatant from this centrifugation step was then filtered using a 0.22 μm membrane. The clarified supernatant was then applied to 1 mL of nickel-nitrotriacetic acid (Ni-NTA) resin that had been pre-equilibrated with 20 mL of pET lysis buffer. The resin was washed with 20 mL (20 column volumes) of pET lysis buffer. Afterward, the resin was incubated with 3 mL of pET elution buffer (10 mM NaH2POd4, 250 mM imidazole, 300 mM NaCl, pH 8.0), equilibrated for 5 minutes, and then eluted. The elution step was then repeated with 2 ml of extra elution buffer to increase recovery.”

[5] = biological target: T5, human serine dehydratase (hSDH) Variant 5 (I13T, S26N, R51H, I96T, D114E, G129D, K221R, A222G, W157R, D261L, L112S), SEQ ID NO: 6 (Homo sapiens, UniProt P20132, A222G/D114E/D261L/G129D/I13T/I96T/K221R/L112S/R51H/S26N/W157R); assay: MBTH assay, kcat/Km of purified hSDH Variant 5; conditions: role: substrate; threonine 1-100 mM, 1-2 μM enzyme, 37 °C, 20 seconds
T5 sequence (P20132 1-328 I13T/S26N/R51H/I96T/L112S/D114E/G129D/W157R/K221R/A222G/D261L): T3 sequence (P20132 1-328 I13T/S26N/R51H/I96T/L112S/D114E/G129D/W157R/K221R/A222S/D261L) with S222G
Procedure: as §1, with “minutes.” for “minutes. The supernatant from this centrifugation step was then filtered using a 0.22 μm membrane. The clarified supernatant was then applied to 1 mL of nickel-nitrotriacetic acid (Ni-NTA) resin that had been pre-equilibrated with 20 mL of pET lysis buffer. The resin was washed with 20 mL (20 column volumes) of pET lysis buffer. Afterward, the resin was incubated with 3 mL of pET elution buffer (10 mM NaH2POd4, 250 mM imidazole, 300 mM NaCl, pH 8.0), equilibrated for 5 minutes, and then eluted. The elution step was then repeated with 2 ml of extra elution buffer to increase recovery.”

[6] = biological target: T6, human serine dehydratase (hSDH) Variant 3 (S26N, R51H, S63P, M70I, L94P, G129D, A204S, K221R, A222S, L112S), SEQ ID NO: 4 (Homo sapiens, UniProt P20132, A204S/A222S/G129D/K221R/L112S/L94P/M70I/R51H/S26N/S63P); assay: MBTH assay, kcat/Km of purified hSDH Variant 3; conditions: role: substrate; threonine 1-100 mM, 1-2 μM enzyme, 37 °C, 20 seconds
T6 sequence (P20132 1-328 S26N/R51H/S63P/M70I/L94P/L112S/G129D/A204S/K221R/A222S): T3 sequence (P20132 1-328 I13T/S26N/R51H/I96T/L112S/D114E/G129D/W157R/K221R/A222S/D261L) with T13I, S63P, M70I, L94P, T96I, E114D, R157W, A204S, L261D
Procedure: as §1, with “minutes.” for “minutes. The supernatant from this centrifugation step was then filtered using a 0.22 μm membrane. The clarified supernatant was then applied to 1 mL of nickel-nitrotriacetic acid (Ni-NTA) resin that had been pre-equilibrated with 20 mL of pET lysis buffer. The resin was washed with 20 mL (20 column volumes) of pET lysis buffer. Afterward, the resin was incubated with 3 mL of pET elution buffer (10 mM NaH2POd4, 250 mM imidazole, 300 mM NaCl, pH 8.0), equilibrated for 5 minutes, and then eluted. The elution step was then repeated with 2 ml of extra elution buffer to increase recovery.”

How did the “kcat/KM (L-serine to pyruvate)” value ([1]; irreversible deamination of L-serine to pyruvate) turn out when `N[C@@H](CO)C(=O)O` [Serine, L-serine] was run?
Its value is ~ 0.6 s^−1 mM^−1.

What does the source list for `C[C@@H](O)[C@H](N)C(=O)O` [Threonine, L-threonine]?
Kcat /Km (Threonine) [2]: 2000 ± 50 M⁻¹ s⁻¹; Kcat /Km (Threonine) [3]: 6800 ± 700 M⁻¹ s⁻¹; kcat/KM (L-threonine to α-ketobutyrate) ([1]; irreversible deamination of L-threonine to α-ketobutyrate): ~ 1.1 s^−1 mM^−1; Kcat /Km (Threonine) ([1]; threonine 1-100 mM, 1-2 μM enzyme, 37 °C, 20 seconds): 1100 ± 50 M⁻¹ s⁻¹; Kcat /Km (Threonine) [4]: 3800 ± 300 M⁻¹ s⁻¹; Kcat /Km (Threonine) [5]: 1700 ± 100 M⁻¹ s⁻¹; Kcat /Km (Threonine) [6]: 2800 ± 200 M⁻¹ s⁻¹
